# Results from patent US20250387392A1, “PYRIDAZINONE COMPOSITIONS FOR THE TREATMENT OF NEUROMUSCULAR CONDITIONS” (Edgewise Therapeutics, Inc., priority 2022, published 2025).
# Experiments:
# [1] = system: adults with BMD; experiment: Functional tests (velocity, muscle strength) in adults with BMD; format: in vivo, human
# Excerpt: FIG. 7 depicts increases in functional measures such; walk/run velocity, stair climb velocity, and grip strength in BMD patients at two and four months following the initial administration of Compound 1 in comparison to baseline measurements.
# FIGS. 12A-12F depict the functional evaluation after the treatment of Compound 1. FIG. 12A depicts the average 10 m velocity in different dosing regimens. All p-values NS with a 7% decrease at 12 months. Last observation carried forward (all N=12, except for 2 missing values, month 4 and 8). FIG. 12B depicts the average 100 meter velocity in different dosing regimens. All p-values NS with 0% change at 12 months. Last observation carried forward (all N=12, except for 2 missing values, month 4 and 8). FIG. 12C depicts the average 4-stair climb time velocity in different dosing regimens. All p-values NS except that p value for 12 months was 0.016, which was 13% decrease at 12 months. FIG. 12D depicts the average maximum grip strength in different dosing regimens. p-values <0.05 at 4, 6, 8 month and NS at 12 months. There was a 8% decrease at 12 months. FIG. 12E depicts the average maximum knee extension strength in different dosing regimens. P-values <0.05 at 4, 8, 12 month. There was a 25% decrease at 12 months. FIG. 12F depicts the maximum elbow flexion strength in different dosing regimens. All p-values NS, and there was no change at 12 months.
# Furthermore, functional tests were carried out to evaluate the functional improvements of muscle in the participants resulted from Compound 1. […] Different parameters of muscle strength were also quantified and evaluated in FIGS. 12D-12F.
# [2] = system: fast skeletal muscle troponin I (TNNI2); experiment: Muscle damage biomarker fast skeletal muscle troponin I in adults with BMD (ELISA / SOMAscan); format: in vivo, human
# Description: (§1) FIGS. 2 to 8 depict positive 4-month interim results from the ongoing open label, single-center study assessing the safety, tolerability, and impact on muscle damage biomarkers, and pharmacokinetics (PK) of Compound 1 in adults with BMD. Twelve adults with BMD enrolled in the ARCH study, were dose escalated to daily 15 mg oral doses of Compound 1 at night after having initially received a 10 mg dose during the first 2 months of the study. […] All eligible patients have subsequently been dose escalated to 20 mg daily as per protocol.
# (§2) Treatment with Compound 1 led to a significant decrease in key biomarkers of muscle damage when assessed by laboratory assays. Importantly, CK and fast skeletal muscle troponin I were reduced by an average of 29% and 73%, respectively, after 4 months (FIG. 5).
# (§3) Several biomarkers of muscle damage were tested to evaluate the efficacy of Compound 1 with different dosing regimens.
# (§4) Changes in muscle injury biomarkers such as creatine kinase (CK) or fast skeletal muscle troponin I (TNNI2) were assessed in clinical trial participants. The abundance of the biomarkers were measured by plasma proteomics (SOMAscan) in short- (1-2 months), mid- (3-4 months), or long-term (6-12 months) treatment. FIG. 14A illustrates the design of this study. 12 BMD participants, 7 of whom participated in the Phase I MAD study (Example 2), were enrolled and initially treated with 10 mg of Compound 1 daily, with dose-escalation from 10 mg to 20 mg daily as shown. Blood draws were taken at pre-dose baseline, then at regular intervals thereafter for analysis by SOMAscan, as well as quantification of CK activity or TNNI2 concentration by an activity assay or ELISA. SOMAscan is a multistep modified aptamer-based assay for highOthroughpu, sensitive, and unbiased biomarker measurement. Proteins in the samples were selectively bound with fluorescent aptamers, which were then measured on a chip array to yield values proportion to absolute concentrations.
# (§5) In this study, SOMAscan was correlated to CK and TNNI2 to allow for direct conversion to absolute concentrations as well as used to identify large-scale proteomic differences between short- and long-term treatment with Compound 1. FIG. 14B illustrates validation of CK and TNNI2, where a strong correlation between SOMAscan and absolute measurements of CK (left) and TNNI2 (right) was observed. FIG. 14C illustrates SOMAscan-quantified CK and TNNI2 in blood. […] Indicated significance was for all values at that treatment point relative to pre-dose baseline. FIG. 14D and FIG. 14E illustrate the effect of Compound 1 on muscle injury proteins. SOMAscan was used to analyze the effects of treatment on a set of proteins identified to correlate with bona-fide contraction-induced skeletal muscle injury (FIG. 14D).
# [3] = system: muscle injury proteins; experiment: SOMAscan plasma proteomics, muscle injury proteins, BMD participants; format: in vivo, human
# Description: as §4
# In this study, SOMAscan was correlated to CK and TNNI2 to allow for direct conversion to absolute concentrations as well as used to identify large-scale proteomic differences between short- and long-term treatment with Compound 1. […] FIG. 14C illustrates SOMAscan-quantified CK and TNNI2 in blood. […]
# [4] = system: proinflammatory cytokines and chemokines, anti-inflammatory interleukins; experiment: SOMAscan plasma proteomics, inflammatory proteins, BMD participants; format: in vivo, human
# Description: as §4
# FIG. 14G and FIG. 14H illustrate favorable shift in inflammatory biomarkers with long-term treatment. […] The observed protein concentration changes after 6-12 months were consistent across study participants (FIG. 14H).
# [5] = Plasma PK of Compound 1 in adults with BMD (ARCH open label study); format: in vivo, human; set-up: Mean AUC for the Compound 1 Plasma PK levels: unit not given here; conditions: for Mean AUC for the Compound 1 Plasma PK levels: BMD patients
# Description: FIG. 4 depicts plasma levels of Compound 1 and step count of BMD patients after four months of dosing.
# as §1
# (§6) FIGS. 10 to 13 depict promising 12-month results from the ongoing open label, single-center study assessing the safety, tolerability, and impact on muscle damage biomarkers, and pharmacokinetics (PK) of Compound 1 in adults with BMD. The different dosing regimens depicted in FIGS. 10A-10C, FIG. 111B, and FIGS. 12A-12F were carried out in three cohorts. One cohort has been dosed with 20 mg of Compound 1 for 12 months. A second cohort has been dosed with 15 mg of Compound 1 for 6 months. A third cohort has been dosed with 10 mg of Compound 1 for 2 months. […] Therefore, no treatment plans were discontinued due to AEs.
# (§7) In parallel, the plasma concentrations of Compound 1 were also monitored across different dosing regimens. For group with higher dosage (e.g., the 20 mg group), there were patients with high exposures or low exposures. It was unexpected that the patients with high exposures reached to a range of plasma concentration after dosing with 20 mg/day, which was more than 4-fold higher than the target exposures predicted from preclinical models. It is also worth noting that Compound 1 was enriched in muscle. The target muscle concentration of Compound 1 from patients with lower plasma concentration were 1,000-4000 ng/g from preclinical experiments. Using muscle biopsy data from a Phase 1 multiple ascending dose (MAD) study, this equates to approximately 15-70 ng/ml in BMD. In other words, Compound 1 was enriched by about 60 fold in muscle compared to plasma.
# [6] = system: adults with BMD; experiment: Safety and tolerability in adults with BMD (ARCH open label study); format: in vivo, human
# Description: as §1, §6
# [7] = Preclinical experiments, target muscle concentration; format: in vivo; conditions: from preclinical experiments
# Description: as §7
# [8] = system: creatine kinase (CK); experiment: Muscle damage biomarker creatine kinase in adults with BMD (activity assay / SOMAscan); format: in vivo, human
# Description: as §1, §2, §3, §4, §5
# [9] = system: myoglobin; experiment: Muscle damage biomarker myoglobin in adults with BMD; format: in vivo, human
# Description: as §6, §3
# [10] = system: adults with BMD; experiment: North Star Ambulatory Assessment (NSAA) in adults with BMD; format: in vivo, human; conditions: for NSAA outcome: 20 mg group
# Excerpt: After 4 months of Compound 1 dosing, NSAA increased by an average of 1.17 points compared to pre-therapy baseline. […] The NSAA improvements observed after only 4 months of Compound 1 dosing differ from trajectories observed in the natural history study reported by Bello et al. (2016), one of the most comprehensively characterized BMD cohorts, in which the yearly decline was 1.22 NSAA points.
# NSAA scores were also quantified based on FIGS. 9A-9C. Compound 1 stabilized NSAA scores by rescuing the natural history trend by about 1.6 points, and led to a trend towards an improvement in the scores. […] In comparison, the expected natural history decline in untreated patients is around −1.2 to −1.3 points.
# Therefore, a lower exposure of Compound 1 (e.g., 10 mg) may have a more desired functional benefit.
# [11] = system: adults with BMD; experiment: Self-reported pain score in adults with BMD; format: in vivo, human
# Excerpt: FIG. 8 depicts a decrease in the self-reported pain score in BMD patients at two and four months following the initial administration of Compound 1.
# BMD individuals usually report more diffuse pain on spine and calves, See Jacques M F et al., Plos ONE (2019). Self-reported pain evaluation was collected and quantified in FIG. 13. […] Therefore, Compound 1 has shown to reduce pain associated with BMD.
# [12] = Muscle versus plasma concentration, muscle biopsy data from Phase 1 multiple ascending dose (MAD) study; format: in vivo, human
# Description: as §7
# [13] = two and four months after initial administration (FIG. 7)
# [14] = after 4 months, laboratory assay
# [15] = short-term treatment (1-2 months), relative to pre-dose baseline
compound,measurement,setting,value
O=c1ccc(-c2cnc(OCC(F)(F)F)nc2)nn1Cc1cncc(F)c1 [Compound 1],Deterioration in 10 m velocity,[1]; 12-month results (FIG. 12A),no statistically significant deterioration
same,Deterioration in 100 meter velocity,[1]; 12-month results (FIG. 12B),no statistically significant deterioration
same,Deterioration in 4-stair climb time velocity,[1]; 12-month results (FIG. 12C),no statistically significant deterioration
same,Decrease in average 4-stair climb time velocity,"[1]; at 12 months, p 0.016 (FIG. 12C)",13%
same,Decrease in average maximum knee extension strength,"[1]; at 12 months, p <0.05 (FIG. 12E)",25%
same,Decrease in average 10 m velocity,"[1]; at 12 months, p NS (FIG. 12A)",7%
same,Change in average 100 meter velocity,"[1]; at 12 months, p NS (FIG. 12B)",0%
same,Decrease in average maximum grip strength,"[1]; at 12 months, p NS (FIG. 12D)",8%
same,Change in maximum elbow flexion strength,"[1]; at 12 months, p NS (FIG. 12F)",no change
same,Muscle strength effect,[1]; some participants from the 20 mg group (FIGS. 12C-12F),muscle strength weakness
same,Grip strength versus baseline,[1]; [13],increases
same,Stair climb velocity versus baseline,[1]; [13],increases
same,Walk/run velocity versus baseline,[1]; [13],increases
same,Change of TNNI2 level,[2]; 10 mg dose,near maximal decreases
same,Average reduction of fast skeletal muscle troponin I,[2]; [14],73%
same,Patients reaching fast skeletal muscle troponin I levels of unaffected adults,"[2]; after 4 months, twelve participants",four patients achieving levels observed in unaffected adults
same,Change of TNNI2 level,[2]; different dosing regimens up to 12 months (FIG. 10B),sustained decrease
same,SOMAscan-quantified circulating TNNI2,[2]; longer-term treatment timepoints,reduced to nearly healthy levels
same,SOMAscan-quantified circulating TNNI2,[2]; [15],reduced by short-term treatment
same,Muscle injury proteins (SOMAscan),[3]; long-term treatments (6-12 months),stable levels or further decreases
same,Muscle injury proteins (SOMAscan),"[3]; short-term treatment (1-2 months, 10 mg)",decreased from pre-dose baseline
same,Proinflammatory cytokines and chemokines (SOMAscan),[4]; after 6-12 months,very significantly reduced
same,Anti-inflammatory interleukins (SOMAscan),[4]; after long-term treatment (6-12 months),increased
same,Mean AUC for the Compound 1 Plasma PK levels,[5]; 10 mg dose,"1,454"
same,Mean AUC for the Compound 1 Plasma PK levels,[5]; 15 mg dose,"2,299"
same,Mean AUC for the Compound 1 Plasma PK levels,[5]; 20 mg dose,"2,293"
same,Plasma concentration relative to target exposures predicted from preclinical models,"[5]; 20 mg/day, patients with high exposures",more than 4 fold
same,Most common adverse events,[6]; 4-month interim,"dizziness, drowsiness, and headache"
same,Tolerability,"[6]; 4-month interim, 10 mg for 2 months then 15 mg daily oral at night, twelve adults with BMD",well-tolerated in all participants with no discontinuations or dose reductions
same,Tolerability,"[6]; 12-month results, 10, 15 and 20 mg doses",well tolerated at all doses without any severe adverse events
same,Target muscle concentration of Compound 1,[7],"1,000-4000 ng/g"
same,Change of creatine kinase (CK) level,[8]; 10 mg dose,near maximal decreases
same,Average reduction of CK,[8]; [14],29%
same,Change of creatine kinase (CK) level,[8]; different dosing regimens up to 12 months (FIG. 10A),sustained decrease
same,SOMAscan-quantified circulating CK,[8]; [15],reduced by short-term treatment
same,Change of myoglobin level,[9]; 10 mg dose,near maximal decreases
same,Change of myoglobin level,[9]; different dosing regimens up to 12 months (FIG. 10C),sustained decrease
same,NSAA outcome,[10]; participants under high exposures (negative changes in NSAA),less optimal outcomes
same,NSAA outcome,[10]; participants with the lower exposures,stable or the best improving NSAA scores
same,Participants with the same or better NSAA scores,[10]; 12-month group (FIG. 11C),about 75%
same,NSAA rescue of the natural history trend,[10]; 12-month results (FIG. 11A),about 1.6 points
same,Average NSAA increase compared to pre-therapy baseline,[10]; after 4 months of dosing,1.17 points
same,Participants with functional improvement or no decline on NSAA relative to baseline,[10]; after 4 months of dosing,nine of the twelve
same,Self-reported pain scores,[11]; after 12 months of treatment (FIG. 13),positive trend
same,Self-reported pain score,[11]; two and four months after initial administration (FIG. 8),decrease
same,Kp,"[12]; human, muscle, read-out: Enrichment in muscle compared to plasma",~60
same,Plasma concentration equating to target muscle concentration,"[12]; in BMD, using Phase 1 MAD muscle biopsy data",15 to 70 ng/mL
